According to article PMC3740496, “Synthesis and biological activities of the respiratory chain inhibitor aurachin D and new ring versus chain analogues” (Beilstein Journal of Organic Chemistry, 2013):
≈ marks a conversion by molar mass, not a printed value. Blank lines part the entries; values can stand above or below the compound they belong to.

Legend:
Plasmodium falciparum = tested on: Plasmodium falciparum; parameters: method as in PMID 18922036; conditions: cited from earlier work
[1] = tested on: Trypanosoma brucei gambiense strain Feo bloodstream forms; assay: Antitrypanosomal assay (resazurin); assay type: cell-based; conditions: Trypanosoma brucei, GAMBIENSE; 72 h incubation; read-out: IC50 T. brucei gambiense
Procedure: page 10: independent experiments. Chloroquine diphosphate (Sigma–Aldrich) was used as antimalarial drug control. Antitrypanosomal activities: Bloodstream forms of Trypanosoma brucei gambiense strain Feo were cultured in HMI9 medium supplemented with 10% FCS at 37 °C under an atmosphere of 5% CO2. Antitrypanosomal assays were performed as previously described. In all experiments, log-phage cell cultures were harvested by centrifugation at 3,000g and immediately used. Drug assays were based on the conversion of a redox-sensitive dye (resazurin) to a fluorescent product by viable cells. Drug stock solutions were prepared in pure DMSO. […] After a 72 h incubation, resazurin solution was added in each well at the final concentration of 45 µM. Fluorescence was measured at 530 nm excitation and 590 nm emission wavelengths after a further 4 h incubation. Each inhibitor concentration was tested in triplicate. The percentage of inhibition of parasite growth rate was calculated by comparing the fluorescence of parasites maintained in the presence of drug to that in the absence of drug. DMSO was used as a control. IC50s were determined from the dose–response curves with drug concentrations ranging from 100 µM to 50 nM. Pentamidine was used as antitrypanosomal drug control. MIC determination: Indicator strains were obtained from the German Collection of Microorganisms and Cell Cultures (Deutsche Sammlung für Mikroorganismen und Zellkulturen, DSMZ) or were part of our internal strain collection. All microorganisms were handled under standard conditions recommended by the depositor. Overnight S10

[2] = tested on: K562 myelogenous leukemia cells; assay: Cytotoxicity, growth inhibition (MTT); assay type: cell-based; conditions: Homo sapiens, K562, 120 h; 5 days treatment; triplicate, mean ±SD; read-out: IC50: half inhibitory concentration, K562
Procedure: (§1) The cytotoxic activity of aurachin D (4) and analogues 9–11 and 17–19 was evaluated in growth inhibition experiments on mammalian cell lines (Table 2). After 5 days treatment, half inhibitory concentrations (IC50) were determined for human HCT-116 colon carcinoma and human K562 myelogenous leukemia cells. […]
(§2) was further incubated for 1.5 h. The medium was then discarded and 100 µL 2-propanol/10 N HCl (250:1) was added in order to dissolve formazan granules. The absorbance at 570 nm was measured using a microplate reader (EL808, Bio-Tek Instruments Inc.) and cell viability was expressed as a percentage relative to the respective solvent control. […]

[3] = tested on: Escherichia coli DH5α (wt); assay: MIC determination; assay type: cell-based; conditions: duplicate, mean ±SD
Procedure: (§3) MIC determination: Indicator strains were obtained from the German Collection of Microorganisms and Cell Cultures (Deutsche Sammlung für Mikroorganismen und Zellkulturen, DSMZ) or were part of our internal strain collection. All microorganisms were handled under standard conditions recommended by the depositor. Overnight […]
(§4) cultures of bacteria were prepared in EBS medium (0.5% casein peptone, 0.5% proteose peptone, 0.1% meat peptone, 0.1% yeast extract; pH 7.0). Yeasts and molds were grown in Myc medium (1% phytone peptone, 1% glucose, 50 mM
(§5) HEPES, pH 7.0). The overnight cultures of microorganisms were diluted to OD600 0.01 (bacteria) or 0.05 (yeasts/molds) in the respective growth medium. Serial dilutions of compounds were prepared as duplicates in sterile 96-well plates. The cell suspension was added and microorganisms were grown overnight on a microplate shaker (900 rpm, 30 °C or 37 °C). Growth inhibition was assessed by measuring the OD600 on a plate reader (POLARstar, BMG Labtech). MIC50 values were determined as averages relative to respective control samples by sigmoidal curve fitting. […]

Bacillus subtilis DSM10 = assay: MIC determination; assay type: cell-based; conditions: Bacillus subtilis, DSM10; duplicate, mean ±SD
Procedure: as §3, §4, §5

Micrococcus luteus = assay: MIC determination; assay type: cell-based; conditions: duplicate, mean ±SD
Procedure: as §3, §4, §5

Escherichia coli (TolC) = assay: MIC determination; assay type: cell-based; conditions: read-out: MIC50 Escherichia coli (TolC)
Procedure: as §3, §4, §5

[4] = tested on: Staphylococcus aureus DSM11822 (MRSA); assay: MIC determination; assay type: cell-based; conditions: duplicate, mean ±SD
Procedure: as §3, §4, §5

[5] = tested on: Staphylococcus aureus Newman (MSSA); assay: MIC determination; assay type: cell-based; conditions: duplicate, mean ±SD
Procedure: as §3, §4, §5

[6] = tested on: Klebsiella pneumoniae DSM30104; assay: MIC determination; assay type: cell-based; conditions: duplicate, mean ±SD
Procedure: as §3, §4, §5

[7] = tested on: HCT-116 human colon carcinoma cells; assay: Cytotoxicity, growth inhibition (MTT); assay type: cell-based; conditions: Homo sapiens, HCT-116, 120 h, read-out: IC50: half inhibitory concentration, HCT-116
Procedure: as §1, §2

[8] = tested on: Plasmodium falciparum FcB1 (chloroquine-resistant); assay: In vitro antiplasmodial assay ([3H]-hypoxanthine incorporation); assay type: cell-based; conditions: Plasmodium falciparum, FCB1; triplicate (except compound 24), mean ±SD; read-out: IC50 P. falciparum FcB1
Procedure: In vitro antiplasmodial assays: The chloroquine-resistant strain FcB1/Colombia of Plasmodium falciparum was maintained in vitro on human erythrocytes in RPMI 1640 medium supplemented by 8% (v/v) heat-inactivated human serum, at 37 °C, under an atmosphere of 3% CO2, 6% O2, and 91% N2. In vitro drug susceptibility assays was measured by [3H]-hypoxanthine incorporation as described. Drugs were prepared in DMSO at a 10 mg/mL concentration. Compounds were serially diluted two-fold with 100 µL culture medium in 96-well plates. Asynchronous parasite cultures (100 µL, 1% parasitaemia and 1% final hematocrite) were then added to each well and incubated for 24 h at 37 °C prior to the addition of 0.5 µCi of [3H]- hypoxanthine (GE Healthcare, France, 1 to 5 Ci·mmol/mL) per well. After a further incubation of 24 h, plates were frozen and thawed. Cell lysates were then collected onto glass-fiber filters and counted in a liquid scintillation spectrometer. The growth inhibition for each drug concentration was determined by comparison of the radioactivity incorporated in the treated culture with that in the control culture maintained on the same plate. The concentration causing 50% growth inhibition (IC50) was obtained from the drug concentration–response curve and the results were expressed as the mean values ± standard deviations determined from several […]
independent experiments. Chloroquine diphosphate (Sigma–Aldrich) was used as antimalarial drug control. […]

[9] = tested on: Vero cells (nontumor cells); assay: Cytotoxicity on Vero cells (MTT); assay type: cell-based; conditions: 48 h incubation
Procedure: was further incubated for 1.5 h. The medium was then discarded and 100 µL 2-propanol/10 N HCl (250:1) was added in order to dissolve formazan granules. The absorbance at 570 nm was measured using a microplate reader (EL808, Bio-Tek Instruments Inc.) and cell viability was expressed as a percentage relative to the respective solvent control. VERO cells: VERO cells were seeded into 96-well microplates at 10^5 cells per mL in RPMI supplemented with 10% foetal calf serum.
After 24 h, the cells were washed and two microliters of two-fold serial dilutions of each compound (10 mg/mL) was added to 100 μL of medium. Cells were then incubated for 48 h at 37 ° C under a 5% CO2 atmosphere. At the end of incubation, 20 µL of MTT solution (5 mg/mL) was added to each well and further incubated for 4 h at 37 °C to allow the formation of formazan. The crystals of formazan were then dissolved with 100 µL of a freshly prepared solution of sodium dodecyl sulfate (SDS) 10% (15 mL) and HCl 1 N (150 µL). The optical density of each well was measured at 595 nm using a multiwell plate reader. The 50% inhibition concentration was then determined by curve fitting.
MMP assay: Human U-2 OS osteosarcoma cells (HTB-96) were obtained from the American Type Culture Collection (ATCC) and were cultured under the conditions recommended by the depositor. Cells from actively growing cultures were harvested and seeded at 8 × 10^3 cells per well in 96-well imaging plates (BD Falcon). After 1 d cells reached approximately 60% confluency and were treated with aurachin analogues at the assigned concentrations for 16 h. In addition, cells were stimulated with 1 µM FCCP [carbonyl cyanide 4-(trifluoromethoxy)phenylhydrazone] as a positive control 1 h prior to the measurement. For labeling, cells were washed twice with assay buffer ([…], 5.4 mM KCl, 2 mM MgCl2, 10 mM glucose, 2 mM CaCl2, 10 mM HEPES; pH 7.35) and 100 µL of a staining solution (50 nM TMRM,

Plasmodium = tested on: Plasmodium; parameters: method as in PMID 15215101; conditions: read-out: antiplasmodial IC50; cited from earlier work

SMILES: CC(C)=CCC/C(C)=C/CC/C(C)=C/Cc1c(O)c(C)[n+]([O-])c2ccccc12 [aurachin B]
IC50 Plasmodium falciparum (Plasmodium falciparum): around 20 ng/mL

SMILES: CC(C)=CCC/C(C)=C/CC/C(C)=C/Cc1c(C)n(O)c2ccccc2c1=O [aurachin C]
IC50 Plasmodium falciparum (Plasmodium falciparum): around 20 ng/mL
fold higher antiplasmodial activity compared to aurachin D (Plasmodium falciparum): approximately 200 fold

SMILES: CC(C)=CCC/C(C)=C/CC/C(C)=C/Cc1c(C)n2c(=O)[nH]c3cccc(c1=O)c32 [aurachin E]
IC50 Plasmodium falciparum (Plasmodium falciparum): around 20 ng/mL

SMILES: CC(C)=CCc1c(C)[nH]c2ccccc2c1=O [compound 10]
IC50 [1]: 5.8 µg/mL (≈ 25.5 µM)
IC50 [2]: ~10 µg/mL (≈ 44 µM)
MIC50 [3]: > 64 µg/mL
MIC50 (Bacillus subtilis DSM10): 0.22 ± 0.06 µg/mL (≈ 0.968 µM)
MIC50 (Micrococcus luteus): 14.3 ± 1.29 µg/mL (≈ 63 µM)
MIC50 (Escherichia coli (TolC)): 6.55 ± 1.36 µg/mL (≈ 28.8 µM)
MIC50 [4]: 11.3 ± 1.44 µg/mL (≈ 49.7 µM)
MIC50 [5]: 9.66 ± 2.39 µg/mL (≈ 42.5 µM)
MIC50 [6]: > 64 µg/mL
IC50 [7]: > 10 µg/mL
IC50 [8]: 0.55 ± 0.16 µg/mL (≈ 2.42 µM)

SMILES: Cc1[nH]c2ccccc2c(=O)c1C [compound 11]
IC50 [1]: > 10 µg/mL
IC50 [2]: > 10 µg/mL
MIC50 [3]: > 64 µg/mL
MIC50 (Bacillus subtilis DSM10): 49 ± 6.26 µg/mL (≈ 283 µM)
MIC50 (Micrococcus luteus): > 64 µg/mL
MIC50 (Escherichia coli (TolC)): > 64 µg/mL
MIC50 [4]: > 64 µg/mL
MIC50 [5]: > 64 µg/mL
MIC50 [6]: > 64 µg/mL
IC50 [7]: > 10 µg/mL
IC50 [8]: 2.3 ± 1.4 µg/mL (≈ 13.3 µM)

SMILES: Cc1c2c(c3ccccc3[n+]1[O-])O[C@H]([C@](C)(O)CCC1OC1(C)C)C2 (stereo partly shown) [compound 22]
IC50 [9]: > 50 µg/mL

IC50 [1]: > 10 µg/mL
IC50 [8]: 7.7 ± 2.5 µg/mL (≈ 48.4 µM)
SMILES: Cc1cc(=O)c2ccccc2[nH]1 [compound 23, 2-methyl-4(1H)-quinolone, reference compound]

IC50 [1]: 1.7 µg/mL (≈ 7.14 µM)
IC50 [8]: 1.1 µg/mL (≈ 4.62 µM)
SMILES: Cc1[nH]c2ccccc2c(=O)c1Br [compound 24, 3-bromo-2-methyl-4(1H)-quinolone]

IC50 [1]: > 10 µg/mL
IC50 [8]: 2.7 ± 1.3 µg/mL (≈ 14.3 µM)
SMILES: Cc1c(C)n(O)c2ccccc2c1=O [compound 25, N-hydroxy-2,3-dimethyl-4(1H)-quinolone]

SMILES: CC(C)=CCC/C(C)=C/CC/C(C)=C/CO [farnesol]
IC50 (Plasmodium): 64 µM
